Laboratory results from patent US20260345742A1, “SYNTHETIC SURFACTANTS FOR INHIBITING CORONAVIRUS INFECTION” (priority 2022, published 2026).
Like-named read-outs stand apart in the source and are kept apart here. Ends that are not written are not given here.

Key:
[1] = Aqueous solution solubility; type: physicochemical; settings: stated as the reason for biotinylation
SARS-CoV-2 RBD = SARS-CoV-2 RBD (Severe acute respiratory syndrome coronavirus 2, UniProt P0DTC2); test: SPR binding (Biacore T200) of SARS-CoV-2 RBD to chip-linked biotinylated B-YL
Procedure: FIG. 3. Surface plasmon resonance (SPR) sensorgrams of rbCovid-19-RBD protein construct and human ACE2 receptor binding to immobilized B-YL peptide. The B-YL peptide was biotinylated to facilitate attachment to the Biacore chip as described in Methodology. Solutions of 1 μM recombinant protein in HBS-EP buffer (10 mM Hepes, pH 7.4, 150 mM NaCl, 3 mM EDTA, 0.005% surfactant P20) were then flowed over the respective chip-linked peptides. The concentration dependent binding of the viral RBD construct (A) and the human ACE-2 receptor (B) to the B-YL lung surfactant peptide are shown with the SPR response indicated in relative response units (RU) on the graph's Y-axis.
One of the best in vitro determinations of the binding of proteins and peptides to one another is by surface plasmon resonance (SPR). This technique allows the direct measurement of the binding of a peptide or protein by attaching one protein to a sensor chip surface and flowing a solution containing a second protein over the surface. The binding affinities derived from such measurements are very similar to those observed in vivo.
The binding affinity of the B-YL lung surfactant peptide to the coronavirus recombinant spike protein construct of SARS-CoV-2 (viral spike protein amino acid sequence) that included the Receptor Binding Domain (RBD) was measured with SPR spectroscopy using a Biacore T200 system (GE Healthcare Bio-Sciences Corp, Piscataway, NJ 08855).
B-YL peptide binding to the recombinant SARS-CoV-2 RBD domain dissolved in a series of seven concentrations (1,000, 500, 250, 125, 62.5, 31.25 and 0 nM) in the analyte and was determined from the sensorgrams, in which arbitrary response units (RUS) are recorded as a function of time.
In Table 1, association and dissociation kinetic rate constants (kon, koff) and equilibrium dissociation constants (KD) were calculated from surface plasmon resonance (SPR) kinetic measurements for aqueous SARS-CoV-2 RBD expressed protein flowing past B-YL surfactant peptide on the Biacore chip. The recombinant SARS-CoV-2 RBD protein was dissolved in running buffer and was flowed past the sensor chip with a BiocoreT200 system (Methods). Kinetic rate constants and equilibrium dissociation constants were determined from curve fitting analysis of SPR traccs.
The binding affinities of the B-YL lung surfactant peptide to the Angiotensin-Converting Enzyme 2 (ACE-2) receptor recombinant construct (human amino acid sequence) and the coronavirus recombinant spike protein construct of Covid-19 (viral spike protein amino acid sequence) that included the Receptor Binding Domain (RBD) were measured with surface plasmon resonance (SPR) spectroscopy using a Biacore T200 system (GE Healthcare Bio-Sciences Corp, Piscataway, NJ 08855).
The SPR binding study was accomplished by associating the ligand (B-YL peptide) immobilized on the SPR sensor surface, and the solute containing the ACE-2 or the Covid-19 protein construct was then flowed past the sensor linked molecule. The binding of the solute to the sensor surface ligand results in an evanescent sensor response, is measured in Response Units (RU) that are proportional to the bound mass.
In Table 3, Association and dissociation kinetic rate constants (kon, koff) and equilibrium dissociation constants (KD) were calculated from surface plasmon resonance (SPR) kinetic measurements for aqueous RBD, and ACE2 flowing past BYL attached to a Biacore chip. Proteins were dissolved in running buffer (10 mM HEPES, 150 mM NaCl, 3 mM EDTA, 0.005% Surfactant P20, pH 7.4) and were flowed past biotin linked B-YL peptide construct on a CSM sensor chip with a Biacore system (Methodology). Kinetic rate constants and equilibrium dissociation constants were determined from curve fitting analysis of SPR traces.

ACE2 = ACE2 (Homo sapiens, UniProt Q9BYF1); test: SPR binding (Biacore T200) of ACE2 to chip-linked biotinylated B-YL
Sequence of ACE2 (Q9BYF1 18-805): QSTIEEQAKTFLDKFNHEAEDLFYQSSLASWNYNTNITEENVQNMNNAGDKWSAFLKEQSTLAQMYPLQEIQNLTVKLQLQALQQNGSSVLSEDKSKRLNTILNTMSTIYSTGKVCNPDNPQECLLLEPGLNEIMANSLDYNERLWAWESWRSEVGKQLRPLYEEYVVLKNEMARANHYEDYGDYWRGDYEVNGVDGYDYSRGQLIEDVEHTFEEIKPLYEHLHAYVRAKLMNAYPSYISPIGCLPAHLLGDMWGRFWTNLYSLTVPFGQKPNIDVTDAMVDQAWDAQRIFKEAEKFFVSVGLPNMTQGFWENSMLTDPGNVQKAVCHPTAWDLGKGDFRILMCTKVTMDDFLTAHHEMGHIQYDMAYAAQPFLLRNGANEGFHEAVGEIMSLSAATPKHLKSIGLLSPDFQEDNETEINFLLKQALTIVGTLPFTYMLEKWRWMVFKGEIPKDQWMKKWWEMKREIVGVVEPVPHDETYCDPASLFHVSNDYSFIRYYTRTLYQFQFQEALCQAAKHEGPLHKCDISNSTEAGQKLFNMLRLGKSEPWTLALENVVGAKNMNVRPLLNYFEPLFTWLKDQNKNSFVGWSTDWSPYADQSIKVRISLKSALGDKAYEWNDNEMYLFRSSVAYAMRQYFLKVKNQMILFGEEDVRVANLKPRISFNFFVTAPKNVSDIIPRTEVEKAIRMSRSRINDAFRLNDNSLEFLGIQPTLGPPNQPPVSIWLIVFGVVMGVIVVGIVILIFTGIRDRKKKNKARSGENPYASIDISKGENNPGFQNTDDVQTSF

Sequence: FPIPLPYYWLYRALIKRIQALIPKGGRLLPQLVYRLVLRYS [B-YL]
- aqueous solution solubility [1]: limited aqueous solution solubility
- koff (SARS-CoV-2 RBD): 5.08 × 10^−02 1/s
- Kd (SARS-CoV-2 RBD; RBD(wt) - B-YL, expt. data - SPR (Table 2)): 57 µM
- Kd (SARS-CoV-2 RBD; Table 1, aqueous SARS-CoV-2-RBD over chip-associated biotinylated B-YL, HBS-EP pH 7.4, 37 °C, KD=koff/kon): 56.9 µM
- Kd (SARS-CoV-2 RBD; Table 3, aqueous RBD over chip-linked B-YL, pH 7.4, 37 °C, KD=koff/kon): 57 µM
- koff (SARS-CoV-2 RBD; pH 7.4): 0.0508 s⁻¹
- kon (SARS-CoV-2 RBD; pH 7.4, Table 1, aqueous SARS-CoV-2-RBD over chip-associated biotinylated B-YL, HBS-EP pH 7.4, 37 °C): 890 M⁻¹ s⁻¹
- kon (SARS-CoV-2 RBD; pH 7.4, Table 3, aqueous RBD over chip-linked B-YL, pH 7.4, 37 °C): 892 M⁻¹ s⁻¹
- Kd (ACE2): 4.37 µM
- koff (ACE2; pH 7.4): 0.013 s⁻¹
- kon (ACE2; pH 7.4): 2980 M⁻¹ s⁻¹
